Test results as given in patent publication US9302999B2, “Substituted triazoles as herbicides” (E. I. DU PONT DE NEMOURS AND COMPANY, priority 2012, dated 2016).

How the values were obtained:
Type in all cases: in vivo
[1] = test system: morningglory (Ipomoea spp.); assay: Test A pre-/postemergence: morningglory
Outline: (§1)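 Rating scale 0–100 (100 = complete control), visual, ~10 days after application in the greenhouse. Applications: preemergence directed soil spray; postemergence at 1–2 leaves.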

[2] = test system: wheat (Triticum aestivum); assay: Test A pre-/postemergence: wheat
Outline: as §1

[3] = test system: corn (Zea mays); assay: Test A pre-/postemergence: corn
Outline: as §1

[4] = test system: ryegrass, Italian (Italian ryegrass, Lolium multiflorum); assay: Test C pre-/postemergence: ryegrass, Italian
Outline: (§2)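 Visual injury scored 0–100 (100 = complete control) against untreated controls after 13–15 greenhouse days. Surfactant-containing solvent formulations applied either to soil after sowing (loam/sand) or over 1- to 4-leaf plants, 2–18 cm tall.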

[5] = test system: galium (catchweed bedstraw, Galium aparine); assay: Test C pre-/postemergence: galium
Outline: as §2

[6] = test system: large crabgrass (Digitaria sanguinalis); assay: Test C pre-/postemergence: large crabgrass
Outline: as §2

[7] = test system: foxtail, giant (giant foxtail, Setaria faberii); assay: Test C pre-/postemergence: foxtail, giant
Outline: as §2

[8] = test system: johnsongrass (Sorghum halepense); assay: Test C pre-/postemergence: johnsongrass
Outline: as §2

[9] = test system: kochia (Kochia scoparia); assay: Test C pre-/postemergence: kochia; conditions: Postemergence
Outline: as §2

[10] = test system: pigweed (Amaranthus retroflexus); assay: Test C pre-/postemergence: pigweed
Outline: as §2

[11] = test system: ragweed (common ragweed, Ambrosia elation); assay: Test C pre-/postemergence: ragweed
Outline: as §2

[12] = test system: velvetleaf (Abutilon theophrasti); assay: Test C pre-/postemergence: velvetleaf
Outline: as §2

[13] = Postemergence, 125 g ai/ha, 0 to 100 scale, 0 is no effect, 100 is complete control
[14] = Postemergence, 500 g ai/ha, 0 to 100 scale, 0 is no effect, 100 is complete control
[15] = Preemergence, 125 g ai/ha, 0 to 100 scale where 0 is no effect and 100 is complete control
[16] = Preemergence, 500 g ai/ha, 0 to 100 scale (0 no effect, 100 complete control)
[17] = Postemergence, 31 g ai/ha, scale 0 to 100 (0 no effect, 100 complete control)
[18] = Postemergence, 62 g ai/ha, scale 0 to 100 (0 no effect, 100 complete control)
[19] = Postemergence, 125 g ai/ha, scale 0 to 100, 0 no effect, 100 complete control
[20] = Postemergence, 250 g ai/ha, scale 0 to 100 (0 no effect, 100 complete control)
[21] = Preemergence, 31 g ai/ha, scale 0 (no effect) to 100 (complete control)
[22] = Preemergence, 62 g ai/ha, scale of 0 to 100, 0 is no effect, 100 is complete control
[23] = Preemergence, 125 g ai/ha, scale 0 to 100, 0 no effect, 100 complete control
[24] = Preemergence, 250 g ai/ha, scale 0 to 100, 0 no effect, 100 complete control
[25] = Postemergence, 250 g ai/ha, scale 0 to 100

CCCc1nn(-c2ccc(C(F)(F)F)c(F)c2)nc1Oc1ccnc(C(F)(F)F)c1 [Compound 185]
Plant response rating, Morningglory [1, 13]: 100
Morningglory plant response rating [1, 14]: 100
Plant response rating, Morningglory [1, 15]: 60
Plant response rating, Morningglory [1, 16]: 100
Plant response rating, Wheat [2, 13]: 20
Wheat plant response rating [2, 14]: 40
Plant response rating, Wheat [2, 15]: 30
Plant response rating, Wheat [2, 16]: 50
Plant response rating, Corn [3, 13]: 20
Corn plant response rating [3, 14]: 50
Plant response rating, Corn [3, 15]: 10
Plant response rating, Corn [3, 16]: 30
Plant response rating, Ryegrass, Italian [4, 17]: 10
Plant response rating, Ryegrass, Italian [4, 18]: 10
Plant response rating, Ryegrass, Italian [4, 19]: 25
Plant response rating, Ryegrass, Italian [4, 20]: 35
Plant response rating, Ryegrass, Italian [4, 21]: 90
Plant response rating, Ryegrass, Italian [4, 22]: 100
Plant response rating, Ryegrass, Italian [4, 23]: 100
Plant response rating, Ryegrass, Italian [4, 24]: 100
Plant response rating, Galium [5, 17]: 70
Plant response rating, Galium [5, 18]: 80
Plant response rating, Galium [5, 19]: 90
Plant response rating, Galium [5, 20]: 90
Plant response rating, Galium [5, 21]: 80
Plant response rating, Galium [5, 22]: 100
Plant response rating, Galium [5, 23]: 100
Plant response rating, Galium [5, 24]: 100
Plant response rating, Crabgrass, Large [6, 17]: 25
Plant response rating, Crabgrass, Large [6, 18]: 40
Plant response rating, Crabgrass, Large [6, 19]: 60
Plant response rating, Crabgrass, Large [6, 25]: 80
Plant response rating, Crabgrass, Large [6, 21]: 100
Plant response rating, Crabgrass, Large [6, 22]: 100
Plant response rating, Crabgrass, Large [6, 23]: 100
Plant response rating, Crabgrass, Large [6, 24]: 100
Plant response rating, Foxtail, Giant [7, 17]: 40
Plant response rating, Foxtail, Giant [7, 18]: 80
Plant response rating, Foxtail, Giant [7, 19]: 90
Plant response rating, Foxtail, Giant [7, 25]: 98
Plant response rating, Foxtail, Giant [7, 21]: 100
Plant response rating, Foxtail, Giant [7, 22]: 100
Plant response rating, Foxtail, Giant [7, 23]: 100
Plant response rating, Foxtail, Giant [7, 24]: 100
Plant response rating, Johnsongrass [8, 17]: 10
Plant response rating, Johnsongrass [8, 18]: 30
Plant response rating, Johnsongrass [8, 19]: 65
Plant response rating, Johnsongrass [8, 20]: 75
Plant response rating, Johnsongrass [8, 21]: 25
Plant response rating, Johnsongrass [8, 22]: 70
Plant response rating, Johnsongrass [8, 23]: 80
Plant response rating, Johnsongrass [8, 24]: 100
Plant response rating, Kochia ([9]; 31 g ai/ha, scale 0 to 100 (0 no effect, 100 complete control)): 90
Plant response rating, Kochia ([9]; 62 g ai/ha, scale 0 to 100 (0 no effect, 100 complete control)): 90
Plant response rating, Kochia ([9]; 125 g ai/ha, scale 0 to 100, 0 no effect, 100 complete control): 90
Plant response rating, Kochia ([9]; 250 g ai/ha, scale 0 to 100 (0 no effect, 100 complete control)): 90
Plant response rating, Pigweed [10, 17]: 98
Plant response rating, Pigweed [10, 18]: 98
Plant response rating, Pigweed [10, 19]: 100
Plant response rating, Pigweed [10, 20]: 100
Plant response rating, Pigweed [10, 21]: 100
Plant response rating, Pigweed [10, 22]: 100
Plant response rating, Pigweed [10, 23]: 100
Plant response rating, Pigweed [10, 24]: 100
Plant response rating, Ragweed [11, 17]: 75
Plant response rating, Ragweed [11, 18]: 90
Plant response rating, Ragweed [11, 19]: 95
Plant response rating, Ragweed [11, 20]: 95
Plant response rating, Ragweed [11, 21]: 40
Plant response rating, Ragweed [11, 22]: 80
Plant response rating, Ragweed [11, 23]: 95
Plant response rating, Ragweed [11, 24]: 95
Plant response rating, Velvetleaf [12, 17]: 55
Plant response rating, Velvetleaf [12, 18]: 80
Plant response rating, Velvetleaf [12, 19]: 85
Plant response rating, Velvetleaf [12, 20]: 90
Plant response rating, Velvetleaf [12, 21]: 60
Plant response rating, Velvetleaf [12, 22]: 80
Plant response rating, Velvetleaf [12, 23]: 100
Plant response rating, Velvetleaf [12, 24]: 100
